No end group written: not given here.
Columns and labels:
[1] = tested on: monocytes; conditions: Osterman et al, Biochem. Biophys. Res. Comm. 107:130-135, 1982; cited from earlier work
[2] = tested on: Con A-induced suppression; assay: Reversal of Con A-induced suppression of the splenic plaque-forming cell (PFC) response to SRBC in mice; format: in vivo; conditions: for Reversal of Con A-induced suppression (result in words): mice, PFC response to SRBC; for Activity / effective amount on a molar basis relative to the PF4 holoprotein: restoring suppressed immune responses in mice
Procedure: Concanavalin A (Miles--Yeda Ltd., Research Products, Israel) was reconstituted with saline and kept frozen. Dilutions from the frozen stock were stored at 4° C. and injected i.v. into mice one day prior to antigen, sheep erythrocytes (SRBC). SRBC were obtained from Colorado Serum Company (Denver, Colorado) washed, counted and injected intraperitoneally (i.p.) in mice. Human serum or platelet releasate was administered i.v. one to two hours before Con A i.v.
The spleens of the mice were assayed for plaque-forming cells (PFC) on day 5 after injection of sheep red blood cells. The assay employed was as follows: single-cell suspensions were prepared from individual spleens of mice. The cells were suspended in Hanks' Balanced Salt Solution (Gibco Laboratories, Grand Island, New York) and washed. Direct PFC were enumerated using the well-known method of Jerne, N.K. et al (in Cell-Bound Antibody, Amos, E. and Koprowsky, H. eds., Wistar Institute Press. pp. 109-111, […]) with the slide modification of Mishell, R.I. and Dutton, R.W. (J. Exp. Med. 126:423, 1967), both incorporated by reference. […]
When treated with thrombin or A23187 (Calcium ionophore), platelets also release alpha granule constituents other than PF4. In particular, they release LA-PF4 and PDGF. The inventors tested the ability of LA-PF4 and PDGF to overcome suppression induced by 5 μg Con A. […]
Mice were injected with 10 micrograms of Con A i.v. on day -1 (except in the positive control, which received no Con A) and on day 0 with 2.5×10^6 SRBC per mouse as in Example 2 above. On day -1, the mice also received either: Nothing (100% control), Con A only, platelet releasate (equivalent to the amount of PF4 holoprotein contained in the platelet releasate from 2×10^7 platelets or about 0.12 microgram/mouse) and various concentrations of the above-mentioned synthetic C-terminal peptide of human PF4.

[3] = tested on: spleen, lymph node and thymus cells; assay: Absorption of immunoregulatory activity by cells from lymphoid organs, read out as reversal of Con A-induced suppression (PFC/spleen); format: in vivo, CB6F1 mouse
Procedure: The spleens of the mice were assayed for plaque-forming cells (PFC) on day 5 after injection of sheep red blood cells. The assay employed was as follows: single-cell suspensions were prepared from individual spleens of mice. The cells were suspended in Hanks' Balanced Salt Solution (Gibco Laboratories, Grand Island, New York) and washed. Direct PFC were enumerated using the well-known method of Jerne, N.K. et al (in Cell-Bound Antibody, Amos, E. and Koprowsky, H. eds., Wistar Institute Press. pp. 109-111, […]) with the slide modification of Mishell, R.I. and Dutton, R.W. (J. Exp. Med. 126:423, 1967), both incorporated by reference.
In order to confirm and expand this finding, 1 ml o serum, diluted 1:2, was absorbed twice for thirty minutes at 4° C. using half the number of cells for each absorption as are listed for spleen (Sp1), lymphnode (LN) and thymus (Thy) in Table 3. Each CB6F1 mouse received 0.2 ml of a 1:4 dilution of absorbed or unabsorbed serum i.v. one to two hours before administration of 2×10^6 SRBC i.v. Plaque-forming cell response was measured as in Example 2.
The experiments were performed exactly as described for the PF4 holoprotein in Example 4 above, except that 0.5 (Expt. 1) or 2.5 micrograms (Expt. 2) of the PF4 tridecapeptide was administered.

[4] = 10 micrograms Con A, 0.7-1 μg Tridecapeptide
[5] = 10 micrograms Con A, 2.5-7 μg Tridecapeptide
[6] = 10 micrograms Con A, 2.5-7 μg Tridecapeptide on day -1, n 5-10

Pro-Leu-Tyr-Lys-Lys-Ile-Ile-Lys-Lys-Leu-Leu-Glu-Ser-COOH (PLYKKIIKKLLES-OH) [Tridecapeptide, carboxy-terminal 13 amino acid residues of human PF4]
Chemotactic activity for monocytes (result in words) [1]: potent chemotactic agent | Reversal of immunosuppression induced by Con A (result in words) ([2]; 0.7-7 micrograms administered to mice): active in reversing the immunosuppression induced by Con A | Expt.1 % (of 100% control) ([2]; 10 micrograms Con A, 0.007 μg Tridecapeptide): 52% | Geom. Mean PFC/Spleen (SE), Expt.1 PFC ([2]; 10 micrograms Con A, 0.007 μg Tridecapeptide on day -1, n 5-10): 5,700(1.4) PFC/Spleen | Expt.1 % (of 100% control) ([2]; 10 micrograms Con A, 0.07 μg Tridecapeptide): 37% | Geom. Mean PFC/Spleen (SE), Expt.1 PFC ([2]; 10 micrograms Con A, 0.07 μg Tridecapeptide on day -1, n 5-10): 4,000(1.4) PFC/Spleen | Expt.1 % (of 100% control) [2, 4]: 95% | Expt.2 % (of 100% control) [2, 4]: 226% | Geom. Mean PFC/Spleen (SE), Expt.1 PFC ([2]; 10 micrograms Con A, 0.7-1 μg Tridecapeptide on day -1, n 5-10): 10,400(1.1) PFC/Spleen | Expt.1 % (of 100% control) [2, 5]: 99% | Expt.3 % (of 100% control) [2, 5]: 270% | Geom. Mean PFC/Spleen (SE), Expt.1 PFC [2, 6]: 10,900(1.2) PFC/Spleen | Geom. Mean PFC/Spleen (SE), Expt.3 PFC [2, 6]: 38,800(1,1) PFC/Spleen | Reversal of Con A-induced suppression (result in words) [2]: able to overcome Con A-induced suppression in a dose-dependent fashion | Activity / effective amount on a molar basis relative to the PF4 holoprotein [2]: less than that of the holoprotein | Activity / effective amount on a molar basis relative to the PF4 holoprotein ([2]; listed as PF4 tridecapeptide): About three times more | Geom mean PFC/Spleen, Expt. 1 Geom. Mean ([3]; SRBC + Con A, 0.5 μg/mouse tridecapeptide, unabsorbed or absorbed with cells): 23,488 PFC/Spleen | Geom mean PFC/Spleen, Expt. 2 Geom. Mean ([3]; SRBC + Con A, 2.5 μg/mouse tridecapeptide, unabsorbed or absorbed with cells): 38,790 PFC/Spleen | Absorption of the immunoregulatory activity by cells (result in words) ([3]; normal mouse spleen cells): spleen cells can absorb

PDGF: platelet-derived growth factor, platelet alpha-granule constituent [reference compound]
Geom. Mean of PFC/Spleen On Day 5, Expt. 1 ([2]; 5 μg Con A, antilog of standard error ≤ 1.1, n = 4, PDGF 0.003 μg per mouse): 8,370 PFC/Spleen | Immunomodulatory activity against suppression induced by 5 μg Con A (result in words) ([2]; concentrations well below those in serum: PDGF 0.003 μg, LA-PF4 0.6 μg, purified PF4 0.2 to 0.6 μg per mouse): little or not activity | Reversal of Con A-induced suppression (result in words) [2]: no significant immunomodulating activity
